Like-named read-outs stand apart in the source and are kept apart here.
Tests used:
ECE-1 = target: T1, ECE-1 (Homo sapiens, UniProt P42892); details: cited from earlier work; for peptide present that is degraded: within 100 minutes of incubation
T1 sequence (P42892 1-770): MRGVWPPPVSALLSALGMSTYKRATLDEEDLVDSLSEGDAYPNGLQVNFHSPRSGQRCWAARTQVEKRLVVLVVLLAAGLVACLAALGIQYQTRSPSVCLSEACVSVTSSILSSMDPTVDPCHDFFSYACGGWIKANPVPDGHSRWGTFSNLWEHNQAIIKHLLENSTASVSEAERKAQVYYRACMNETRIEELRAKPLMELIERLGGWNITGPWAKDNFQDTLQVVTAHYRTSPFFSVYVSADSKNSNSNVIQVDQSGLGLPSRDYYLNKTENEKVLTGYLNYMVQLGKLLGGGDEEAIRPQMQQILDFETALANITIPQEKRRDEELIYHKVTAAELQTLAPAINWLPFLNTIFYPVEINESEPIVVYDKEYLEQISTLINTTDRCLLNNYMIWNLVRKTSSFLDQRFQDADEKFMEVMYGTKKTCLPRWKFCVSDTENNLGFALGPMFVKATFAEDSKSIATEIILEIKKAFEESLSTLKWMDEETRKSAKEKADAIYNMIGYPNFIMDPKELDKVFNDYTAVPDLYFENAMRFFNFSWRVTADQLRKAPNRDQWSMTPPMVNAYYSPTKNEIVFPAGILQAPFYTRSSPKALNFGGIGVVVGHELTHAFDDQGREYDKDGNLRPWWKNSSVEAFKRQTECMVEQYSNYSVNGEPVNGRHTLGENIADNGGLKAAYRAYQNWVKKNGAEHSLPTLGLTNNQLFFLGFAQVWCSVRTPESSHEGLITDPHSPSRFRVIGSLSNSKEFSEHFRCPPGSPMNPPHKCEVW

[1] = Example I: degradation in IMDM media with 2.5% fetal bovine serum
[2] = Example II: degradation of further Substance P analogs in IMDM media with 2.5% fetal bovine serum; details: 72 hours, present tense
[3] = system: influenza virus subtypes H1N1, H3N2, H5N1 and H7N9; design: species or system mice, cotton rats and ferrets; details: in vivo
[4] = system: influenza virus subtypes H1N1, H3N2, H5N1 and H7N9; design: species or system mice, cotton rats and ferrets; details: in vivo; remark: listed apart in the source
Influenza/A/Wuhan/359/95 [5] = system: Influenza/A/Wuhan/359/95; design: species or system cotton rats (Sigmodon Hispidus); details: rat, in vivo
Influenza/A/Wuhan/359/95 [6] = system: Influenza/A/Wuhan/359/95; design: species or system cotton rats (Sigmodon Hispidus); details: rat, in vivo; remark: listed apart in the source

Structure (SMILES)	peptide present that is degraded (ECE-1; 195 nM ECE-1)	remaining at 72 h [1]	initial concentration recovered [2]	flu-related symptoms compared with placebo [3]	flu-related symptoms compared with placebo [4]	symptom reduction compared with subjects treated with an enumerated Substance P analog [4]	body weight change following infection (Influenza/A/Wuhan/359/95 [5])	body weight loss (Influenza/A/Wuhan/359/95 [6])	pulmonary inflammation (alveolitis and interstitial inflammation) (Influenza/A/Wuhan/359/95 [6])	additional degradation after long incubation (ECE-1; 195 nM ECE-1, 1200 minutes post-incubation)	time for 50% of the peptide present to become degraded (ECE-1; 195 nM ECE-1)
CSCC[C@H](NC(=O)[C@H](CC(C)C)NC(=O)CNC(=O)[C@H](Cc1ccccc1)NC(=O)[C@H](Cc1ccccc1)NC(=O)[C@H](CCC(N)=O)NC(=O)[C@H](CCC(N)=O)NC(=O)[C@@H]1CCCN1C(=O)[C@H](CCCCN)NC(=O)[C@@H]1CCCN1C(=O)[C@@H](N)CCCN=C(N)N)C(N)=O [Substance P]	~100%	24%	24%								
CCOC(=O)C1=C[C@@H](OC(CC)CC)[C@H](NC(C)=O)[C@@H](N)C1 [Tamiflu®, oseltamivir]				fewer flu-related symptoms	fewer flu-related symptoms	do not exhibit the symptom reduction produced in the subjects treated with one of the enumerated Substance P analogs	greater loss in body weight than mock-treated/infected animals	recover from weight-loss quicker than vehicle-treated controls	did not appear to affect pulmonary inflammation		
CC(C)C[C@H](NC(=O)CN(C)C(=O)[C@H](Cc1ccccc1)NC(=O)[C@H](Cc1ccccc1)NC(=O)[C@H](CCC(N)=O)NC(=O)[C@H](CCC(N)=O)NC(=O)[C@@H]1CCCN1C(=O)[C@H](CCCCN)NC(=O)[C@@H]1CCCN1C(=O)[C@@H](N)CCCNC(=N)N)C(=O)N[C@@H](CCS(C)(=O)=O)C(N)=O	about 20%	59%								no additional degradation occurs	~300 min

From US20170065663A1, “SUBSTANCE AND METHOD FOR TREATING INFLUENZA” (priority 2014, published 2017)
